Results published in patent publication US7589087B2 (Janssen Pharmaceutica, N.V., priority 2006, dated 2009).

molecular target: T1, human histamine H4 receptor (Homo sapiens, UniProt Q9H3N8); experiment: Binding Assay on Recombinant Human Histamine H4 Receptor (3H-histamine competition, membranes of transfected SK-N-MC or COS7 cells); also: ligand 5 nM
T1 construct: expressed in transfected cells; host or cells: SK-N-MC cells or COS7 cells, transiently transfected; membranes prepared
Method: SK-N-MC cells or COS7 cells were transiently transfected with pH4R and grown in 150 cm^2 tissue culture dishes. Cells were washed with saline solution, scraped with a cell scraper and collected by centrifugation (1000 rpm, 5 min). Cell membranes were prepared by homogenization of the cell pellet in 20 mM Tris-HCl with a polytron tissue homogenizer for 10 sec at high speed. Homogenate was centrifuged at 1000 rpm for 5 min at 4° C. The supernatant was then collected and centrifuged at 20,000×g for 25 min at 4° C. The final pellet was resuspended in 50 mM Tris-HCl. […] Incubation occurred at room temperature for 45 min. Membranes were harvested by rapid filtration over Whatman GF/C filters and washed 4 times with ice-cold 50 mM Tris HCl. Filters were then dried, mixed with scintillant and counted for radioactivity.

T1 sequence (Q9H3N8 whole entry): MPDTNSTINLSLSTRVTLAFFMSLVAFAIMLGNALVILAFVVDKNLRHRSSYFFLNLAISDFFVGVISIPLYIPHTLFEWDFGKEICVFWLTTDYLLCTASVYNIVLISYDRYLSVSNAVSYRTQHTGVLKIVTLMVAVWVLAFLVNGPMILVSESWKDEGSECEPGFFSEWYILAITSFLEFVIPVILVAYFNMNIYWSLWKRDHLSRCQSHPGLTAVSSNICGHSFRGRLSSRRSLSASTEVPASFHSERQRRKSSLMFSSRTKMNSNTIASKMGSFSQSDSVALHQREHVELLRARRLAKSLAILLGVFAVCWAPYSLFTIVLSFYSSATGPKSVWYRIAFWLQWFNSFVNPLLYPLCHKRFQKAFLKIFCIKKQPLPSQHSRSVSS

SMILES	Ki [nM]
CN1CCC(CCCN(C)c2ccc(-c3nc4c(F)c(F)ccc4[nH]3)cn2)CC1 [Example 28, [5-(4,5-Difluoro-1H-benzoimidazol-2-yl)-pyridin-2-yl]-methyl-[3-(1-methyl-piperidin-4-yl)-propyl]-amine]	37
CN1CCC(CCCNc2ccc(-c3nc4c(F)c(F)ccc4[nH]3)cn2)CC1 [Example 29, [5-(4,5-Difluoro-1H-benzoimidazol-2-yl)-pyridin-2-yl]-[3-(1-methyl-piperidin-4-yl)-propyl]-amine]	89
CN1CCC(CCCNc2ccc(-c3nc4cc(C(=O)c5ccccc5)ccc4[nH]3)cn2)CC1 [Example 30, (2-{6-[3-(1-Methyl-piperidin-4-yl)-propylamino]-pyridin-3-yl}-1H-benzoimidazol-5-yl)-phenyl-methanone]	520
CN1CCC(CCCNc2ccc(-c3nc4c(Cl)cccc4[nH]3)cn2)CC1 [Example 31, [5-(4-Chloro-1H-benzoimidazol-2-yl)-pyridin-2-yl]-[3-(1-methyl-piperidin-4-yl)-propyl]-amine]	2670
CN1CCC(CCCNc2ccc(-c3nc4cc(F)ccc4[nH]3)cn2)CC1 [Example 32, [5-(5-Fluoro-1H-benzoimidazol-2-yl)-pyridin-2-yl]-[3-(1-methyl-piperidin-4-yl)-propyl]-amine]	41
Cc1cc(C)c2nc(-c3ccc(NCCCN4CCN(C)CC4)nc3)[nH]c2c1 [Example 33, [5-(4,6-Dimethyl-1H-benzoimidazol-2-yl)-pyridin-2-yl]-[3-(4-methyl-piperazin-1-yl)-propyl]-amine]	680
CC(C)N(CCCN1CCN(C)CC1)c1ccc(-c2nc3cc(Cl)ccc3[nH]2)cn1 [Example 34, [5-(5-Chloro-1H-benzoimidazol-2-yl)-pyridin-2-yl]-isopropyl-[3-(4-methyl-piperazin-1-yl)-propyl]-amine]	570
Cc1ccc2[nH]c(-c3ccnc(NC(=O)CCCC4CCN(C)CC4)c3)nc2c1C [Example 35, N-[4-(4,5-Dimethyl-1H-benzoimidazol-2-yl)-pyridin-2-yl]-4-(1-methyl-piperidin-4-yl)-butyramide]	470
CN1CCC(CCCC(=O)Nc2cc(-c3nc4cc(Cl)ccc4[nH]3)ccn2)CC1 [Example 36, N-[4-(5-Chloro-1H-benzoimidazol-2-yl)-pyridin-2-yl]-4-(1-methyl-piperidin-4-yl)-butyramide]	660
Cc1ccc2[nH]c(-c3ccc(N(CCCC4CCN(C)CC4)C(C)C)nc3)nc2c1C [Example 37, [5-(4,5-Dimethyl-1H-benzoimidazol-2-yl)-pyridin-2-yl]-isopropyl-[3-(1-methyl-piperidin-4-yl)-propyl]-amine]	3470
Cc1cccc2[nH]c(-c3ccnc(NC(=O)CCCC4CCN(C)CC4)c3)nc12 [Example 38, N-[4-(4-Methyl-1H-benzoimidazol-2-yl)-pyridin-2-yl]-4-(1-methyl-piperidin-4-yl)-butyramide]	3330
